In patent US20250304537A1 (Repare Therapeutics Inc., priority 2022, published 2025):
pIC50: −log10 of the molar value. Where two headings read alike, the source gives them in different places.

Test system: PKMYT1 (CDK1 pThr14) in FUOV1 cells
Experiment: PKMYT1 cell-based activity assay, CDK1 pThr14 AlphaLISA in FUOV1 cells
Details: read-out: FUOV-1 CDK1 pThr14 IC50
Outline: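 FUOV1 cells were treated with PKMYT1 inhibitor for 2 h at 37 °C, then lysed. CDK1 pThr14 was measured by AlphaLISA, pairing an anti-pThr14 antibody with an anti-total CDK1 antibody (5 nM each). Signal read at 680/615 nm and used to derive IC50.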

Row | SMILES | pIC50 (2 h, 2 h compound incubation) | pIC50 (2 h, 2 hours with compound) | also measured
1 | Cc1ccc2[nH]ncc2c1-c1nc(-c2cccnc2NC[C@H]2CCOC2)nc(C(N)=O)c1N [Compound 594] | 7.44 |  | 
2 | [2H]C([2H])([2H])c1ccc2[nH]ncc2c1-c1nc(-c2cccnc2NC23CC(C(=O)OC)(C2)C3)nc(C(N)=O)c1N [Compound 961, methyl 3-((3-(5-amino-4-carbamoyl-6-(5-(methyl-d3)-1H-indazol-4-yl)pyrimidin-2-yl)pyridin-2-yl)amino)bicyclo[1.1.1]pentane-1-carboxylate] |  | 6.65 | 
3 | Cc1ccc2[nH]ncc2c1-c1nc(-c2cccnc2N[C@@H]2CCOC[C@@H]2F)nc(C(N)=O)c1N [Compound 643] | 8.15 |  | 
4 | Cc1cc(F)c2[nH]ncc2c1-c1nc(-c2cc(F)cnc2N[C@H]2CCOC2)nc(C(N)=O)c1N [Compound 869] |  | 7.26 | 
5 | Cc1ccnc(Nc2cc(F)ccc2-c2nc(C(N)=O)c(N)c(-c3c(C)ccc4[nH]ncc34)n2)n1 [Compound 534] | 7.06 |  | 
6 | Cc1ccc2[nH]ncc2c1-c1nc(-c2cccnc2Nc2ccc(F)nc2F)nc(C(N)=O)c1N [Compound 641] | 6.41 |  | 
7 | Cc1ccc2[nH]ncc2c1-c1nc(-c2ccc(Cl)nc2NC2CC(F)(F)C2)nc(C(N)=O)c1N [Compound 802] |  | 6.13 | 
8 | Cc1ccc2[nH]ncc2c1-c1nc(-c2cc(F)cnc2N[C@H]2CC[C@](C)(O)CC2)nc(C(N)=O)c1N [Compound 722] | 6.63 |  | 
9 | Cc1ccc2[nH]ncc2c1-c1nc(-c2cc(F)ccc2NS(C)(=O)=O)nc(C(N)=O)c1N [Compound 491] | 7.35 |  | 
10 | Cc1ccc(Cl)nc1Nc1nc(F)ccc1-c1nc(C(N)=O)c(N)c(-c2c(C)ccc3[nH]ncc23)n1 [Compound 943] |  | 7.66 | 
11 | Cc1ccc2[nH]ncc2c1-c1cc(-c2ccnc(OCc3nccn3C)n2)nc(C(N)=O)c1N [Compound 301] |  |  | pIC50 (2 h, 2 h incubation): 7.41
12 | Cc1ccc2[nH]ncc2c1-c1nc(-c2cccnc2Nc2nc(F)ccc2F)nc(C(N)=O)c1O [Compound 806, 2-(2-((3,6-difluoropyridin-2-yl)amino)pyridin-3-yl)-5-hydroxy-6-(5-methyl-1H-indazol-4-yl)pyrimidine-4-carboxamide] |  | < 5.00 | 
13 | Cc1ccc2[nH]ncc2c1-c1nc(-c2cccnc2NC2CCSCC2)nc(C(N)=O)c1N [Compound 597] | 7.31 |  | 
14 | Cc1ccc2[nH]ncc2c1-c1nc(-c2ccc(C(F)(F)F)nc2Nc2nccnc2Cl)nc(C(N)=O)c1N [Compound 771] | 7.02 |  | 
15 | Cc1ccc(O)c(C)c1-c1nc(-c2cccnc2Nc2nccnc2C)nc(C(N)=O)c1N [Compound 727, 5-amino-6-(3-hydroxy-2,6-dimethylphenyl)-2-(2-((3-methylpyrazin-2-yl)amino)pyridin-3-yl)pyrimidine-4-carboxamide] | 8.52 |  | 
16 | Cc1ccc(F)c(Nc2nc(F)ccc2-c2nc(C(N)=O)c(N)c(-c3c(C)c(F)cc4[nH]ncc34)n2)n1 [Compound 850] |  | 8.30 | 
17 | Cc1cccnc1Nc1nc(C#N)ccc1-c1nc(C(N)=O)c(N)c(-c2c(C)ccc3[nH]ncc23)n1 [Compound 737] | 7.47 |  | 
18 | NC(=O)c1nc(-c2cccnc2NCC(F)(F)F)nc(-c2c(Cl)c(F)cc3[nH]ncc23)c1N [Compound 942] |  | 6.40 | 
19 | [2H]C([2H])([2H])c1ccc2[nH]ncc2c1-c1nc(-c2ccc(F)nc2Nc2nc(C)ncc2F)nc(C(N)=O)c1N [Compound 972] |  | 7.85 | 
20 | Cc1ccc2[nH]ncc2c1-c1nc(-c2cc(F)ccc2Nc2ncc(Cl)s2)nc(C(N)=O)c1N [Compound 510] | 6.06 |  | 
21 | Cc1ccc2[nH]ncc2c1-c1nc(-c2cccnc2N[C@@H]2CCOC2)nc(C(N)=O)c1N [Compound 547] | 7.30 |  | 
22 | Cc1cc(Nc2cc(F)ccc2-c2nc(C(N)=O)c(N)c(-c3c(C)ccc4[nH]ncc34)n2)ncn1 [Compound 524] | 7.16 |  | 

Row | SMILES | pIC50 (2 h, 2 h compound incubation) | pIC50 (2 h, 2 hours with compound) | also measured
23 | Cc1ccc2[nH]ncc2c1-c1nc(-c2cc(F)cnc2NCCN2CCCC2)nc(C(N)=O)c1N [Compound 853] |  | 6.27 | 
24 | [2H]C([2H])([2H])c1ccc2[nH]ncc2c1-c1nc(-c2cccnc2Nc2nc(C)ccc2F)nc(C(N)=O)c1N [Compound 824] |  | 8.70 | 
25 | Cc1ccc2[nH]ncc2c1-c1nc(-c2cc(F)cnc2N[C@@H]2CC[C@@H](O)C2)nc(C(N)=O)c1N [Compound 851] |  | 7.36 | 
26 | Cc1ccc2[nH]ncc2c1-c1nc(-c2cc(F)cnc2N[C@@H]2C[C@@H]3CC[C@H]2O3)nc(C(N)=O)c1N [Compound 837] |  |  | pIC50 (2 hours with compound): 7.66
27 | Cc1ccc2[nH]ncc2c1-c1nc(-c2cccnc2NC2CCOCC2(C)C)nc(C(N)=O)c1N (stereo not shown) [Compound 596] | 7.14 |  | 
28 | Cc1ccc2[nH]ncc2c1-c1nc(-c2cccnc2NCCN2CCOCC2)nc(C(N)=O)c1N [Compound 703] | 6.17 |  | 
29 | [2H]C([2H])([2H])c1ccc2[nH]ncc2c1-c1nc(-c2ccc(C3CC3)nc2Nc2ncccc2F)nc(C(N)=O)c1N [Compound 47] |  |  | pIC50 (2 h, 2 h incubation): 7.89
30 | Cc1ccc2[nH]ncc2c1-c1nc(-c2cc(F)cnc2N[C@@H]2CC[C@H](O)C2)nc(C(N)=O)c1N [Compound 833] |  | 7.33 | 
31 | Cc1ccc2[nH]ncc2c1-c1nc(-c2cccnc2Nc2nc(F)ccc2F)nc(C(N)=O)c1Cl [Compound 314, 5-chloro-2-[2-[(3,6-difluoro-2-pyridyl)amino]-3-pyridyl]-6-(5-methyl-1H-indazol-4-yl)pyrimidine-4-carboxamide] |  |  | pIC50 (2 h, 2 h incubation): 5.79
32 | Cc1ccc2[nH]ncc2c1-c1nc(-c2ccc(F)cc2Nc2nnccc2C#N)nc(C(N)=O)c1N [Compound 539] | 7.70 |  | 
33 | Cc1ccc(F)c(Nc2ncccc2-c2nc(C(N)=O)c(N)c(-c3c(C)cc(F)c4[nH]ncc34)n2)n1 [Compound 773] | 8.22 |  | 
34 | Cc1ccc2[nH]ncc2c1-c1nc(-c2ccc(F)cc2Nc2cncnc2)nc(C(N)=O)c1N [Compound 541, 5-amino-2-(4-fluoro-2-(pyrimidin-5-ylamino)phenyl)-6-(5-methyl-1H-indazol-4-yl)pyrimidine-4-carboxamide] | 7.33 |  | 
35 | Cc1ccc2[nH]ncc2c1-c1nc(-c2ccc(F)cc2Nc2ccccc2F)nc(C(N)=O)c1N [Compound 589] | 6.95 |  | 
36 | Cc1ccc(-c2nc(C(N)=O)c(N)c(-c3c(C)ccc4[nH]ncc34)n2)c(Nc2cncc(Cl)n2)n1 [Compound 725] | 6.32 |  | 
37 | Cc1ccc2[nH]ncc2c1-c1nc(-c2cccnc2NC2(C)CCOCC2)nc(C(N)=O)c1N [Compound 544] | 8.22 |  | 
38 | Cc1ccc2[nH]ncc2c1-c1nc(-c2cccnc2Nc2ncccc2C(F)(F)F)nc(C(N)=O)c1N [Compound 767] | 7.96 |  | 
39 | Cc1ccc2[nH]ncc2c1-c1nc(-c2ccc(F)cc2Nc2ccncc2)nc(C(N)=O)c1N [Compound 533] | 8.52 |  | 
40 | Cc1ccc2[nH]ncc2c1-c1nc(-c2ccc(F)cc2Nc2cnccc2C#N)nc(C(N)=O)c1N [Compound 699] | 7.32 |  | 
41 | Cn1cc(-c2nc(C(N)=O)c(N)c(-c3c(Cl)ccc4[nH]ncc34)n2)c(NC2CCOCC2)n1 [Compound 915] |  | 6.79 | 
42 | Cc1ccc2[nH]ncc2c1-c1nc(-c2ccc(F)cc2N[C@H]2C[C@@H](O)C2)nc(C(N)=O)c1N [Compound 860] |  | 6.63 | 
43 | Cc1ccc2[nH]ncc2c1-c1nc(-c2cnccc2NCC(F)(F)F)nc(C(N)=O)c1N [Compound 520, 5-amino-6-(5-methyl-1H-indazol-4-yl)-2-(4-((2,2,2-trifluoroethyl)amino)pyridin-3-yl)pyrimidine-4-carboxamide] | 7.57 |  | 
